# Assay: Inhibition of alpha-glucosidase activity
# Design: species or system Saccharomyces cerevisiae
row,Compound,IC50
1,O=C(O)/C=C/c1ccc(OCc2ccccc2)cc1,> 5000 µM
2,O=C(O)/C=C/c1ccc(Br)cc1,> 5000 µM
3,CCCCCCOc1ccc(/C=C/C(=O)O)cc1,> 5000 µM
4,O=C(O)/C=C/c1ccc([N+](=O)[O-])cc1,> 5000 µM
5,O=C(O)/C=C/c1ccccc1 [CINNAMIC ACID],> 5000 µM
6,CCOC(=O)/C=C/c1ccccc1 [ETHYL CINNAMATE],> 5000 µM
7,O=C(O)/C=C/c1ccccc1O [O-COUMARIC ACID],> 5000 µM

# Second part, the molecule after the results:
row,IC50,Compound
1,390 µM,O=C(O)/C=C/c1ccc(Cl)cc1
2,580 µM,COc1cccc(/C=C/C(=O)O)c1
3,> 5000 µM,CCCCOc1ccc(/C=C/C(=O)O)cc1
4,440 µM,O=C(O)/C=C/c1ccc(Oc2ccccc2)cc1
5,1270 µM,O=C(O)/C=C/c1cccc(O)c1
6,270 µM,O=C(O)/C=C/c1ccc(F)cc1
7,50 µM,CCOC(=O)/C=C/c1ccc(OC)cc1 [4-METHOXY ETHYL CINNAMATE]
8,40 µM,COc1ccc(/C=C/C(=O)O)cc1 [4-METHOXYCINNAMIC ACID]
9,200 µM,O=C(O)/C=C/c1ccc(O)cc1 [COUMARIC ACID]
10,4340 µM,COc1ccccc1/C=C/C(=O)O [COUMARINIC ACID METHYL ETHER]
11,5600 µM,OC[C@H]1NC[C@H](O)[C@@H](O)[C@@H]1O [DUVOGLUSTAT]
